From patent US20130209515A1, “ANTI-INFECTIVE AND IMMUNOMODULATORY COMPOUNDS” (priority 2005, published 2013)

Tested on: mouse genes
Test: Whole genome expression in blood of mice after 2AA (Affymetrix GeneChip)
Assay type: in vivo
Description: To identify how 2AA pre-exposure promotes host defense to better protect against P. aeruginosa infection, we carried out whole genome gene expression studies of mice for several experimental conditions using the mouse full-thickness skin thermal injury infection model, including naïve; BI alone; 2AA treatment alone; 2AA pretreatment plus BI. The mice were injected IP, as we were not yet aware of the improved benefit obtained with IV delivery. Whole blood was collected after 0, 6, 24, 96 and 192 hr post 2AA injection. Also, pretreated BI mice were exposed to 2AA at 1 and 4 days pre-BI, with blood samples collected 24 hr post-BI. The transcriptome profiles were then determined and compared, and genes with statistically significant differences in their expression levels between the samples were further analyzed by pair-wise comparison (see experimental design, section 2.2).
In experiments to determine if T-aminoacetophenone acts as an immunomodulator, eight 6-week old CD-1 male mice were treated intraperitonialy with 500 μl of a 20 mM solution of T-aminoacetophenone in 0.9% NaCl (aq). A control group of mice was administered only 0.9% NaCl. Blood was withdrawn from the mice at time points of 6 hours, 24 hours, 96 hours, and 192 hours, and RNA was extracted from each blood sample.
Mouse GeneChip™ arrays, manufactured by Affymetrix (Santa Clara, Calif.), were used to compare the profile of gene expression in the blood samples of mice. The biotin-labeled cRNA used to hybridize to the GeneChips was prepared from the RNA extracted from the blood samples according to the Affymetrix GeneChip Expression Analysis Technical Manual (Research Genetics, Huntsville, Ala.).
The expression profiles from treated and untreated mice were compared and an additional constraint of a minimum expression ratio of 1 was applied to control false positives to 5%. The gene list was clustered and the genes showing upregulation at any of the time points considered were selected. […] Most of the genes listed in the table function in immune response or host-pathogen interaction. The table includes several cytokines and their receptors, genes involved in immune cell proliferation, and calcium-binding proteins that have a role in downstream signaling.

[1] = 2AA pre-BI, blood 24 hr post-BI (FIG. 38)

## CC(=O)c1ccccc1N [2AA, 2′-aminoacetophenone]
[1]
  down-regulated genes in 2AA-treated BI samples: 23 genes
  up-regulated genes in 2AA-treated BI samples: do not identify any up-regulated
6 h after IP 2AA, blood
  Fold Change AF220015 Rpt-1; regulatory protein, T lymphocyte 1: 2.3 fold
  Fold Change AF237910 Membrane-spanning 4-domains, subfamily A: 2.8 fold
  Fold Change AI323359 Csfmr, colony stimulating factor IR, regulator of myeloid cell proliferation: 2.3 fold
  Fold Change AI462015 Nuclear factor of kappa light chain gene enhancer in B-cells inhibitor, alpha: 2.3 fold
  Fold Change AI648846 Solute carrier family 6: 10.1 fold
  Fold Change AV026617 FBJ osteosarcoma oncogene: 15.0 fold
  Fold Change AV229143 Interferon activated gene (202A): 21.2 fold
  Fold Change AV318494 Myeloid cell leukemia sequence 1: 1.8 fold
  Fold Change BB193024 Interferon-induced transmembrane protein-2: 5.0 fold
  Fold Change BB241535 Suppressor of cytokine signaling 3: 4.9 fold
  Fold Change BB769628 Colony stimulating factor 2 receptor, beta 1: 14.9 fold
  Fold Change BB784999 Triggering receptor expressed on myeloid cells 1: 11.6 fold
  Fold Change BB831725 Suppressor of cytokine signaling 3: 20.8 fold
  Fold Change BC003839 Myeloid cell leukemia sequence 1 (Mcl1): 1.5 fold
  Fold Change BC010291 Interferon-inducible protein (Cd225): 1.3 fold
  Fold Change BC011092 Chemokine (C-C) receptor 1: 1.2 fold
  Fold Change BC011437 IL-1β: 3.5 fold
  Fold Change BC012653 Chemokine (C-X3-C) receptor 1: 30.6 fold
  Fold Change BC021916 EMAPI, cytokine activity: 1.7 fold
  Fold Change BC022943 Lymphocyte cytosolic protein 1: 2.0 fold
  Fold Change BE285634 Interleukin-1 receptor accessory protein: 1.0 fold
  Fold Change NM_008039 Receptor activity [formyl peptide receptor, related sequence 2] (Fpr-rs2): 13.6 fold
  Fold Change NM_008677 p40phox; intracellular signaling cascade neutrophil cytosolic factor 4 (Ncf4): 1.1 fold
  Fold Change NM_008879 Pls2, L-fimbrin, calcium ion binding lymphocyte cytosolic proteing 1 (Lep 1): 20.4 fold
  Fold Change NM_009883 Nuclear factor induced by IL-6 (NF-IL6): 1.0 fold
  Fold Change NM_011087 Paired-Ig-like receptor A1 (Piral): 1.9 fold
  Fold Change NM_011313 Cacy; calcium binding protein A6 (calcyclin)cyclin-dependent protein kinase: 5.7 fold
  Fold Change NM_011315 Saa-3 lipid transported activity acute phase response: 4.7 fold
  Fold Change NM_011355 PU.1, transcription factor complex cell growth and/or maintenance: 17.0 fold
  Fold Change NM_011940 Interferon-activatable protein (Ifi202): 29.8 fold
  Fold Change NM_011999 DCIR; C-type (calcium dependent, carbohydrate recognition domain) lectin: 22.8 fold
  Fold Change NM_030691 Integral to membrane immunoglobulin superfamily, member 6 (Igsf6): 14.9 fold
  Fold Change NM_030694 Interferon-induced transmembrane protein-3: 4.7 fold
  Fold Change U05264 Glycoprotein 49B (Gp49b): 4.7 fold
  Fold Change U72644 Leukocyte specific transcript 1: 1.6 fold
  Fold Change X14607 Lipocalin 2: 13.9 fold
6 hours after 2′-aminoacetophenone
  additional genes upregulated (higher cutoff, Table 4): 10 genes
24 h after IP 2AA, blood
  Fold Change AF220015 Rpt-1; regulatory protein, T lymphocyte 1: 0.6 fold
  Fold Change AF237910 Membrane-spanning 4-domains, subfamily A: 0.5 fold
  Fold Change AI323359 Csfmr, colony stimulating factor IR, regulator of myeloid cell proliferation: 0.7 fold
  Fold Change AI462015 Nuclear factor of kappa light chain gene enhancer in B-cells inhibitor, alpha: 0.4 fold
  Fold Change AI648846 Solute carrier family 6: 8.0 fold
  Fold Change AV026617 FBJ osteosarcoma oncogene: 23.8 fold
  Fold Change AV229143 Interferon activated gene (202A): 10.9 fold
  Fold Change AV318494 Myeloid cell leukemia sequence 1: 1.1 fold
  Fold Change BB193024 Interferon-induced transmembrane protein-2: 1.0 fold
  Fold Change BB241535 Suppressor of cytokine signaling 3: 1.1 fold
  Fold Change BB769628 Colony stimulating factor 2 receptor, beta 1: 6.9 fold
  Fold Change BB784999 Triggering receptor expressed on myeloid cells 1: 5.9 fold
  Fold Change BB831725 Suppressor of cytokine signaling 3: 6.5 fold
  Fold Change BC003839 Myeloid cell leukemia sequence 1 (Mcl1): 0.0 fold
  Fold Change BC010291 Interferon-inducible protein (Cd225): 0.0 fold
  Fold Change BC011092 Chemokine (C-C) receptor 1: −0.9 fold
  Fold Change BC011437 IL-1β: 0.6 fold
  Fold Change BC012653 Chemokine (C-X3-C) receptor 1: 11.6 fold
  Fold Change BC021916 EMAPI, cytokine activity: 0.3 fold
  Fold Change BC022943 Lymphocyte cytosolic protein 1: 0.2 fold
  Fold Change BE285634 Interleukin-1 receptor accessory protein: 0.2 fold
  Fold Change NM_008039 Receptor activity [formyl peptide receptor, related sequence 2] (Fpr-rs2): 0.6 fold
  Fold Change NM_008677 p40phox; intracellular signaling cascade neutrophil cytosolic factor 4 (Ncf4): 0.2 fold
  Fold Change NM_008879 Pls2, L-fimbrin, calcium ion binding lymphocyte cytosolic proteing 1 (Lep 1): 8.4 fold
  Fold Change NM_009883 Nuclear factor induced by IL-6 (NF-IL6): 0.3 fold
  Fold Change NM_011087 Paired-Ig-like receptor A1 (Piral): 0.9 fold
  Fold Change NM_011313 Cacy; calcium binding protein A6 (calcyclin)cyclin-dependent protein kinase: 2.3 fold
  Fold Change NM_011315 Saa-3 lipid transported activity acute phase response: 5.6 fold
  Fold Change NM_011355 PU.1, transcription factor complex cell growth and/or maintenance: 0.0 fold
  Fold Change NM_011940 Interferon-activatable protein (Ifi202): 9.4 fold
  Fold Change NM_011999 DCIR; C-type (calcium dependent, carbohydrate recognition domain) lectin: 8.0 fold
  Fold Change NM_030691 Integral to membrane immunoglobulin superfamily, member 6 (Igsf6): 3.5 fold
  Fold Change NM_030694 Interferon-induced transmembrane protein-3: 1.1 fold
  Fold Change U05264 Glycoprotein 49B (Gp49b): 1.0 fold
  Fold Change U72644 Leukocyte specific transcript 1: 0.9 fold
